Measurements reported in paper PMC8540442, “KBE009: A Bestatin-Like Inhibitor of the Trypanosoma cruzi Acidic M17 Aminopeptidase with In Vitro Anti-Trypanosomal Activity” (Life, 2021).

Biological target: T1, TcLAP (T. cruzi acidic M17 leucyl-aminopeptidase; LAPTc) (Trypanosoma cruzi, UniProt Q4DZJ3)
T1 construct: gene Tc00.1047053508799.240; recombinant TcLAP (rTcLAP)
T1 sequence (Q4DZJ3 1-520): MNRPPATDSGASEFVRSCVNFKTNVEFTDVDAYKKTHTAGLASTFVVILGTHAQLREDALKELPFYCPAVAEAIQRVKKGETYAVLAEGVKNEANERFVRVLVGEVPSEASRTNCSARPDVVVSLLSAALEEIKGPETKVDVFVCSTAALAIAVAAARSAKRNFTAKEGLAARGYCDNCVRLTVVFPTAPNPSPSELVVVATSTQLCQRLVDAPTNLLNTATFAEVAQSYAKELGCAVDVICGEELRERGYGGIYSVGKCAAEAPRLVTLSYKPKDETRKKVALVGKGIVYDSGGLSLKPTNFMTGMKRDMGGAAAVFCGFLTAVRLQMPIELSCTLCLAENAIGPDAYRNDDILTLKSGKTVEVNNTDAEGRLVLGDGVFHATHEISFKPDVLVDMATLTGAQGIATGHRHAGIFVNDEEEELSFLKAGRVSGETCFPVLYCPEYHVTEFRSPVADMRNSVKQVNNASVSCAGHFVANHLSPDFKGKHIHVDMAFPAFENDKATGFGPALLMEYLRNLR
Test: continuous chromogenic assay of purified rTcLAP with Leu-pNA at […] nm, […] min preincubation
Type: biochemical

IC50: 66 ± 13.5 µM
Compound: CC(C)C[C@@H](C(=O)O)N(C(=O)[C@H](N)Cc1ccccc1)C(C(=O)NCc1ccccc1)c1ccco1 (stereo partly shown) [KBE009]
